Test results reported in ChEMBL document CHEMBL4819024, “Synthesis and evaluation of andrographolide derivatives as potent anti-osteoporosis agents in vitro and in vivo” (Eur J Med Chem, 2021).
Calls of active or inactive are those of the source. The calls are words filed in the database; no cut-off is given here.

Columns and labels:
BMMC [1] = experiment: Cytotoxicity against C57BL/6 mouse BMM cells assessed as reduction in cell viability at 30 uM measured after 48 hrs in presence of M-CSF by CCK8 assay; type: cell-based
BMMC [2] = experiment: Anti-osteoporosis activity in C57BL/6 mouse BMM cells assessed as inhibition of M-CSF/RANKL-induced bone resorption at 10 uM after 48 hrs by hydroxyapatite assay using Leica inverted microscope; type: functional; conditions: C57BL/6, BMMC
BMMC [3] = experiment: Downregulation of osteoclastogenesis-associated gene expression in C57BL/6 mouse BMM cells assessed as inhibition of M-CSF/RANKL-induced TRAcP expression at 5 uM after 5 days by qRT-PCR analysis; type: functional, cell-based; conditions: time 5.0 day
BMMC [4] = experiment: Downregulation of osteoclastogenesis-associated gene expression in C57BL/6 mouse BMM cells assessed as inhibition of M-CSF/RANKL-induced CTSK expression at 5 uM after 5 days by qRT-PCR analysis; type: functional, cell-based; conditions: time 5.0 day
BMMC [5] = experiment: Downregulation of osteoclastogenesis-associated gene expression in C57BL/6 mouse BMM cells assessed as inhibition of M-CSF/RANKL-induced NFATc1 expression at 5 uM after 5 days by qRT-PCR analysis; type: functional, cell-based; conditions: time 5.0 day
BMMC [6] = experiment: Downregulation of osteoclastogenesis-associated gene expression in C57BL/6 mouse BMM cells assessed as inhibition of M-CSF/RANKL-induced MMP9 expression at 5 uM after 5 days by qRT-PCR analysis; type: functional, cell-based; conditions: time 5.0 day
[7] = Inhibition of RANKL-induced NFkappaB signaling pathway in mouse RAW264.7 cells assessed as reduction in NFkappaB p65 phosphorylation preincubated for 4 hrs followed by RANKL stimulation for 10 mins and measured by Western blot analysis; type: cell-based; conditions: dose 1-10 µM, time 250.0 min
RAW264.7 [8] = experiment: Effect on NFkappaB p65 expression in RANKL-stimulated mouse RAW264.7 cells at 1 to 10 uM preincubated for 4 hrs followed by RANKL stimulation for 10 mins and measured by Western blot analysis; type: functional; conditions: dose 1-10 µM, time 250.0 min
RAW264.7 [9] = experiment: Inhibition of RANKL-induced NFkappaB signaling pathway in mouse RAW264.7 cells assessed as reduction in IkappaB alpha phosphorylation at 10 uM preincubated for 4 hrs followed by RANKL stimulation for 10 mins and measured by Western blot analysis; type: cell-based; conditions: time 250.0 min
RAW264.7 [10] = experiment: Inhibition of RANKL-induced NFkappaB signaling pathway in mouse RAW264.7 cells assessed as reduction in IkappaB alpha degradation at 10 uM preincubated for 4 hrs followed by RANKL stimulation for 10 mins and measured by Western blot analysis; type: cell-based; conditions: time 250.0 min
[11] = biological target: Transcription factor p65 (Mus musculus) (UniProt Q04207); experiment: Inhibition of RANKL-induced NFkappaB signaling pathway in mouse RAW264.7 cells assessed as reduction in NFkappaB p65 nuclear translocation at 10 uM preincubated for 4 hrs followed by RANKL stimulation for 10 mins and measured by DAPI staining based immunofluorescence analysis; type: cell-based; conditions: time 250.0 min
Sequence of Transcription factor p65 (Mus musculus) (Q04207 whole entry): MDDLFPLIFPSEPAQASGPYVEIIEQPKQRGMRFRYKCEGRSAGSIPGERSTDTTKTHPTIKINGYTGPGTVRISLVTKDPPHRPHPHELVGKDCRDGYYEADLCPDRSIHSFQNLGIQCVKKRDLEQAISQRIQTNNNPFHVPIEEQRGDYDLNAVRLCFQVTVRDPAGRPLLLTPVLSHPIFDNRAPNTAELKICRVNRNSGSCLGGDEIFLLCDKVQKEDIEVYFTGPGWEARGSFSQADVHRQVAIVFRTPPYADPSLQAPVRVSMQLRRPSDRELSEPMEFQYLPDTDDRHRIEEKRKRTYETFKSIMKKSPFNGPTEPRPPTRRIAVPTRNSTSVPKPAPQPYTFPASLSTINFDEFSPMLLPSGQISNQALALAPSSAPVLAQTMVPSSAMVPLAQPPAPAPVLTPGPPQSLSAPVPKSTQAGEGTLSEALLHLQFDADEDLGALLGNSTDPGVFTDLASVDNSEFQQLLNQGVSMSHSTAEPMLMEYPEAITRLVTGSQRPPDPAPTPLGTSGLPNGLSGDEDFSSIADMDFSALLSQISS

C3H 10T1/2 [12] = experiment: Induction of osteoblast differentiation in mouse C3H10T1 /2 cells assessed as increase in ALP expression at 1 to 10 uM measured after 7 days by ALP staining based assay; type: functional, cell-based; conditions: dose 1-10 µM, time 7.0 day
C3H 10T1/2 [13] = experiment: Induction of osteoblast differentiation in mouse C3H10T1/2 cells assessed as increase in calcium nodule formation at 1 to 10 uM measured after 14 days by alizarin red staining assay; type: functional, cell-based; conditions: dose 1-10 µM, time 14.0 day
Mus musculus [14] = experiment: Antiosteoporotic activity against OVX-induced bone loss C57BL/6 mouse model assessed as increase in trabecular bone mass in femoral metaphysis at 10 mg/kg, po QD for 4 weeks by microCT analysis; type: functional, organism-based; conditions: dose 10.0 mg/kg/day
Mus musculus [15] = experiment: Antiosteoporotic activity against OVX-induced bone loss C57BL/6 mouse model assessed as increase in trabecular thickness in femoral metaphysis at 10 mg/kg, po QD for 4 weeks; type: functional, organism-based; conditions: dose 10.0 mg/kg/day
Mus musculus [16] = experiment: Antiosteoporotic activity against OVX-induced bone loss C57BL/6 mouse model assessed as decrease in osteocalcin secretion in serum at 10 mg/kg, po QD for 4 weeks; type: functional, organism-based; conditions: dose 10.0 mg/kg/day
Mus musculus [17] = experiment: Antiosteoporotic activity against OVX-induced bone loss C57BL/6 mouse model assessed as decrease in PINP secretion in serum at 10 mg/kg, po QD for 4 weeks; type: functional, organism-based; conditions: dose 10.0 mg/kg/day
Mus musculus [18] = experiment: Antiosteoporotic activity against OVX-induced bone loss C57BL/6 mouse model assessed as decrease in ACP5 level in serum at 10 mg/kg, po QD for 4 weeks; type: functional, organism-based; conditions: dose 10.0 mg/kg/day
Mus musculus [19] = experiment: Antiosteoporotic activity against OVX-induced bone loss C57BL/6 mouse model assessed as restoration of E2 level in serum at 10 mg/kg, po QD for 4 weeks; type: functional, organism-based; conditions: dose 10.0 mg/kg/day
[20] = biological target: MAP kinase p38 (Mus musculus) (UniProt P47811+O08911+Q9WUI1+Q9Z1B7); experiment: Inhibition of RANKL-induced p38 phosphorylation in mouse RAW264.7 cells at 1 to 10 uM pretreated for 4 hrs prior to RANKL stimulation for 20 mins by western blot analysis; type: cell-based; conditions: dose 1-10 µM, time 260.0 min
RAW264.7 [21] = experiment: Inhibition of RANKL-induced ERK phosphorylation in mouse RAW264.7 cells at 1 to 10 uM pretreated for 4 hrs prior to RANKL stimulation for 20 mins by western blot analysis; type: cell-based; conditions: dose 1-10 µM, time 260.0 min
[22] = Toxicity in OVX-induced bone loss C57BL/6 mouse model assessed as effect on liver morphology at 10 mg/kg, po QD for 4 weeks; type: organism-based; conditions: in vivo, 672 h, dose 10 mg/kg/day
[23] = Toxicity in OVX-induced bone loss C57BL/6 mouse model assessed as effect on spleen morphology at 10 mg/kg, po QD for 4 weeks; type: organism-based; conditions: in vivo, 672 h, dose 10 mg/kg/day
[24] = Toxicity in OVX-induced bone loss C57BL/6 mouse model assessed as effect on lung morphology at 10 mg/kg, po QD for 4 weeks; type: organism-based; conditions: in vivo, 672 h, dose 10 mg/kg/day
[25] = Toxicity in OVX-induced bone loss C57BL/6 mouse model assessed as effect on thymus morphology at 10 mg/kg, po QD for 4 weeks; type: organism-based; conditions: in vivo, 672 h, dose 10 mg/kg/day
[26] = Toxicity in OVX-induced bone loss C57BL/6 mouse model assessed as effect on serum ALT level at 10 mg/kg, po QD for 4 weeks; type: organism-based; conditions: in vivo, 672 h, dose 10 mg/kg/day
[27] = Toxicity in OVX-induced bone loss C57BL/6 mouse model assessed as effect on serum AST level at 10 mg/kg, po QD for 4 weeks; type: organism-based; conditions: in vivo, 672 h, dose 10 mg/kg/day
[28] = Toxicity in OVX-induced bone loss C57BL/6 mouse model assessed as effect on serum GLU level at 10 mg/kg, po QD for 4 weeks; type: organism-based; conditions: in vivo, 672 h, dose 10 mg/kg/day
[29] = Toxicity in OVX-induced bone loss C57BL/6 mouse model assessed as effect on serum creatinine level at 10 mg/kg, po QD for 4 weeks; type: organism-based; conditions: in vivo, 672 h, dose 10 mg/kg/day
[30] = Toxicity in OVX-induced bone loss C57BL/6 mouse model assessed as effect on serum CHO level at 10 mg/kg, po QD for 4 weeks; type: organism-based; conditions: in vivo, 672 h, dose 10 mg/kg/day
[31] = Toxicity in OVX-induced bone loss C57BL/6 mouse model assessed as effect on serum TG level at 10 mg/kg, po QD for 4 weeks; type: organism-based; conditions: in vivo, 672 h, dose 10 mg/kg/day
[32] = Toxicity in OVX-induced bone loss C57BL/6 mouse model assessed as effect on serum CK level at 10 mg/kg, po QD for 4 weeks; type: organism-based; conditions: in vivo, 672 h, dose 10 mg/kg/day

C=C1CC[C@@H]2[C@](C)(CNCc3ccc(F)cc3)[C@H](O)CC[C@@]2(C)[C@@H]1/C=C/C1=CCOC1=O
Activity (BMMC [1]): Non-Toxic | inhibition at 10 µM (BMMC [2]): 100% | inhibition (BMMC [3]): Active | inhibition (BMMC [4]): Active | inhibition (BMMC [5]): Active | inhibition (BMMC [6]): Active | inhibition [7]: Dose-Dependent Effect | Activity (RAW264.7 [8]): inactive | inhibition (RAW264.7 [9]): Active | inhibition (RAW264.7 [10]): Active | inhibition [11]: Active | Activity (C3H 10T1/2 [12]): inactive | Activity (C3H 10T1/2 [13]): inactive | Activity (Mus musculus [14]): Active | Activity (Mus musculus [15]): Active | Activity (Mus musculus [16]): Active | Activity (Mus musculus [17]): Active | Activity (Mus musculus [18]): Active | Activity (Mus musculus [19]): Active | inhibition [20]: inactive | inhibition (RAW264.7 [21]): inactive | Activity [22]: Non-Toxic | Activity [23]: Non-Toxic | Activity [24]: Non-Toxic | Activity [25]: Non-Toxic | Activity [26]: Non-Toxic | Activity [27]: Non-Toxic | Activity [28]: Non-Toxic | Activity [29]: Non-Toxic | Activity [30]: Non-Toxic | Activity [31]: Non-Toxic | Activity [32]: Non-Toxic
